Measured values reported in paper PMC2994747, “Molecular Characterization of c-Abl/c-Src Kinase Inhibitors Targeted against Murine Tumour Progenitor Cells that Express Stem Cell Markers” (PLoS ONE, 2010).

Tested on: A2C12
Experiment: Cell cycle analysis by flow cytometry
Type: cell-based, mouse
Settings: IC50 concentration, 96 h
How it was run: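 DNA-staining kit protocol for cell-cycle distribution: harvested cells go through a three-solution sequence, starting with 10 min at room temperature in solution A and ending at 4°C without light, then are analysed on a flow cytometer.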

## CSc1nc(NCCc2ccc(Cl)cc2)c2cnn(CC(Cl)c3ccccc3)c2n1 (stereo not drawn) [Si57]
  Cells in G1 phase: 44.1%
  Cells in G2 phase: 12.2%
  Cells in S phase: 43.7%
